Experiments:
[1] = test system: antibodies in sera from SARS patients (sera 1a, 1b, 2, 6, 37, 62, London, SARS-yellow, SARS-green); format: binding, human; design: Binding of serum 6 to linear peptides of protein X1 of SARS-CoV Urbani / Binding of serum 37 to linear peptides of protein X1 of SARS-CoV Urbani / Binding of serum 6 to looped/cyclic peptide (PEPSCAN-ELISA) / Binding of serum 37 to looped/cyclic peptide (PEPSCAN-ELISA) / Binding of serum 37 to looped/cyclic peptides of protein X1 of SARS-CoV Urbani / Binding of serum 6 to linear peptides of protein X2 / Binding of serum 37 to linear peptides of protein X2 / Binding of serum 37 to looped/cyclic peptides of protein X2 of SARS-CoV Urbani / Binding of serum 6 to linear peptides of protein M of SARS-CoV Urbani / Binding of serum 37 to linear peptides of protein M of SARS-CoV Urbani / Binding of serum 6 to looped/cyclic peptides of protein M of SARS-CoV Urbani / Binding of serum 37 to looped/cyclic peptides of protein M of SARS-CoV Urbani / Binding of serum 6 to linear peptides of protein X3 of SARS-CoV Urbani / Binding of serum 37 to linear peptides of protein X3 of SARS-CoV Urbani / Binding of serum 37 to looped/cyclic peptides of protein X3 of SARS-CoV Urbani / Binding of serum 6 to linear peptides of protein X4 of SARS-CoV Urbani / Binding of serum 37 to linear peptides of protein X4 of SARS-CoV Urbani / Binding of serum 37 to looped/cyclic peptides of protein X4 of SARS-CoV Urbani / Binding of serum 6 to linear peptides of protein X5 of SARS-CoV Urbani / Binding of serum 37 to linear peptides of protein X5 of SARS-CoV Urbani / Binding of serum 37 to looped/cyclic peptides of protein X5 of SARS-CoV Urbani / Binding of serum 6 to linear peptides of protein N of SARS-CoV Urbani / Binding of serum 37 to linear peptides of protein N of SARS-CoV Urbani / Binding of serum 6 to linear peptide (PEPSCAN-ELISA) / Binding of serum 1a to looped/cyclic peptides of protein N of SARS-CoV Urbani / Binding of serum 1b to looped/cyclic peptides of protein N of SARS-CoV Urbani / Binding of serum 2 to looped/cyclic peptides of protein N of SARS-CoV Urbani / Binding of serum 6 to looped/cyclic peptides of protein N of SARS-CoV Urbani / Binding of serum 37 to looped/cyclic peptides of protein N of SARS-CoV Urbani / Binding of serum 62 to looped/cyclic peptides of protein N of SARS-CoV Urbani / Binding of serum London to looped/cyclic peptides of protein N of SARS-CoV Urbani / Binding of serum SARS-green to looped/cyclic peptides of protein N of SARS-CoV Urbani: unit not given here
[2] = test system: control sera (pooled serum of ten healthy LUMC hospital workers; commercial negative donor pooled serum from the Dutch bloodbank); format: binding, human; design: Binding of Control serum LUMC to linear peptides / Binding of Control serum Blood-bank to linear peptides / Binding of Control serum LUMC to looped peptides / Binding of Control Serum Blood-Bank to Looped peptides / Binding of Control serum LUMC to linear peptides of the protein M of SARS-CoV Urbani / Binding of Control serum Blood-bank to linear peptides of the protein M of SARS-CoV Urbani / Binding of Control serum LUMC to looped peptides of the protein M of SARS-CoV Urbani / Binding of Control Serum Blood-Bank to Looped peptides of the protein M of SARS-CoV Urbani: unit not given here
[3] = test system: rabbit serum obtained by immunizing a rabbit with the SARS-CoV strain Frankfurt 1; format: binding; design: Binding of a rabbit serum to linear peptides / Binding of a rabbit serum to looped peptides / Rabbit serum linear peptides / Rabbit serum looped peptides / Binding of a rabbit serum to linear peptides of protein N of SARS-CoV Urbani (Rabbit serum linear peptides) / Binding of a rabbit serum to looped/cyclic peptides of protein N of SARS-CoV Urbani (Rabbit serum looped peptides): unit not given here
[4] = test system: recombinant human anti-SARS-CoV antibody 03-018; format: binding; design: Binding of antibody 03-018 to linear peptides of the N protein of SARS-CoV Urbani / Binding of antibody 03-018 to looped/cyclic peptides of the N protein of SARS-CoV Urbani: unit not given here

Sequence: RITFGGPTDSTDNNQ
- Binding of serum 1a to linear peptides of protein N of SARS-CoV Urbani [1]: 0.2
- Binding of serum 1a to looped/cyclic peptides of protein N of SARS-CoV Urbani [1]: 0.3
- Binding of serum 1b to linear peptides of protein N of SARS-CoV Urbani [1]: 0.1
- Binding of serum 1b to looped/cyclic peptides of protein N of SARS-CoV Urbani [1]: 0.2
- Binding of serum 2 to linear peptides of protein N of SARS-CoV Urbani [1]: 0.2
- Binding of serum 2 to looped/cyclic peptides of protein N of SARS-CoV Urbani [1]: 0.2
- Binding of serum 6 to linear peptides of protein N of SARS-CoV Urbani [1]: 0.1
- Binding of serum 6 to looped/cyclic peptides of protein N of SARS-CoV Urbani [1]: 0.2
- Binding of serum 37 to linear peptides of protein N of SARS-CoV Urbani [1]: 0.8
- Binding of serum 37 to looped/cyclic peptides of protein N of SARS-CoV Urbani [1]: 0.5
- Binding of serum 62 to linear peptides of protein N of SARS-CoV Urbani [1]: 0.6
- Binding of serum 62 to looped/cyclic peptides of protein N of SARS-CoV Urbani [1]: 0.3
- Binding of serum London to linear peptides of protein N of SARS-CoV Urbani [1]: 0.5
- Binding of serum London to looped/cyclic peptides of protein N of SARS-CoV Urbani [1]: 0.3
- Binding of serum SARS-green to linear peptides of protein N of SARS-CoV Urbani [1]: 0.5
- Binding of serum SARS-green to looped/cyclic peptides of protein N of SARS-CoV Urbani [1]: 0.4
- Binding of serum SARS-yellow to linear peptides of protein N of SARS-CoV Urbani [1]: 1.3
- Binding of serum SARS-yellow to looped/cyclic peptides of protein N of SARS-CoV Urbani [1]: 0.2
- Binding of Control Serum Blood-Bank to Looped peptides [2]: 0.6
- Binding of Control serum Blood-bank to linear peptides [2]: 0.6
- Binding of Control serum LUMC to linear peptides [2]: 0.5
- Binding of Control serum LUMC to looped peptides [2]: 0.5
- Binding of a rabbit serum to linear peptides of protein N of SARS-CoV Urbani (Rabbit serum linear peptides) [3]: 0.3
- Binding of a rabbit serum to looped/cyclic peptides of protein N of SARS-CoV Urbani (Rabbit serum looped peptides) [3]: 0.1
- Recognition of the peptide by antibody 03-018 [4]: recognized

Sequence: RPQGLPNNTASWFTA
- Binding of serum 1a to linear peptides of protein N of SARS-CoV Urbani [1]: 0.3
- Binding of serum 1a to looped/cyclic peptides of protein N of SARS-CoV Urbani [1]: 0.5
- Binding of serum 1b to linear peptides of protein N of SARS-CoV Urbani [1]: 0.1
- Binding of serum 1b to looped/cyclic peptides of protein N of SARS-CoV Urbani [1]: 0.3
- Binding of serum 2 to linear peptides of protein N of SARS-CoV Urbani [1]: 0.2
- Binding of serum 2 to looped/cyclic peptides of protein N of SARS-CoV Urbani [1]: 0.5
- Binding of serum 6 to linear peptides of protein N of SARS-CoV Urbani [1]: 0.2
- Binding of serum 6 to looped/cyclic peptides of protein N of SARS-CoV Urbani [1]: 0.4
- Binding of serum 37 to linear peptides of protein N of SARS-CoV Urbani [1]: 0.7
- Binding of serum 37 to looped/cyclic peptides of protein N of SARS-CoV Urbani [1]: 0.9
- Binding of serum 62 to linear peptides of protein N of SARS-CoV Urbani [1]: 0.7
- Binding of serum 62 to looped/cyclic peptides of protein N of SARS-CoV Urbani [1]: 0.8
- Binding of serum London to linear peptides of protein N of SARS-CoV Urbani [1]: 0.5
- Binding of serum London to looped/cyclic peptides of protein N of SARS-CoV Urbani [1]: 0.5
- Binding of serum SARS-green to linear peptides of protein N of SARS-CoV Urbani [1]: 0.3
- Binding of serum SARS-green to looped/cyclic peptides of protein N of SARS-CoV Urbani [1]: 0.5
- Binding of serum SARS-yellow to linear peptides of protein N of SARS-CoV Urbani [1]: 0.4
- Binding of serum SARS-yellow to looped/cyclic peptides of protein N of SARS-CoV Urbani [1]: 0.7
- Binding of Control Serum Blood-Bank to Looped peptides [2]: 0.9
- Binding of Control serum Blood-bank to linear peptides [2]: 0.8
- Binding of Control serum LUMC to linear peptides [2]: 0.8
- Binding of Control serum LUMC to looped peptides [2]: 0.9
- Binding of a rabbit serum to linear peptides of protein N of SARS-CoV Urbani (Rabbit serum linear peptides) [3]: 0.1
- Binding of a rabbit serum to looped/cyclic peptides of protein N of SARS-CoV Urbani (Rabbit serum looped peptides) [3]: 0.5
- Binding of antibody 03-018 to linear peptides of the N protein of SARS-CoV Urbani [4]: 0.1
- Binding of antibody 03-018 to looped/cyclic peptides of the N protein of SARS-CoV Urbani [4]: 0.2

Sequence: RQGTDYKHWPQIAQF
- Binding of serum 1a to linear peptides of protein N of SARS-CoV Urbani [1]: 0.3
- Binding of serum 1a to looped/cyclic peptides of protein N of SARS-CoV Urbani [1]: 0.5
- Binding of serum 1b to linear peptides of protein N of SARS-CoV Urbani [1]: 0.2
- Binding of serum 1b to looped/cyclic peptides of protein N of SARS-CoV Urbani [1]: 0.4
- Binding of serum 2 to linear peptides of protein N of SARS-CoV Urbani [1]: 0.2
- Binding of serum 2 to looped/cyclic peptides of protein N of SARS-CoV Urbani [1]: 0.5
- Binding of serum 6 to linear peptides of protein N of SARS-CoV Urbani [1]: 0.2
- Binding of serum 6 to looped/cyclic peptides of protein N of SARS-CoV Urbani [1]: 0.3
- Binding of serum 37 to linear peptides of protein N of SARS-CoV Urbani [1]: 0.7
- Binding of serum 37 to looped/cyclic peptides of protein N of SARS-CoV Urbani [1]: 0.8
- Binding of serum 62 to linear peptides of protein N of SARS-CoV Urbani [1]: 0.8
- Binding of serum 62 to looped/cyclic peptides of protein N of SARS-CoV Urbani [1]: 0.9
- Binding of serum London to linear peptides of protein N of SARS-CoV Urbani [1]: 0.7
- Binding of serum London to looped/cyclic peptides of protein N of SARS-CoV Urbani [1]: 0.5
- Binding of serum SARS-green to linear peptides of protein N of SARS-CoV Urbani [1]: 0.3
- Binding of serum SARS-green to looped/cyclic peptides of protein N of SARS-CoV Urbani [1]: 0.4
- Binding of serum SARS-yellow to linear peptides of protein N of SARS-CoV Urbani [1]: 0.6
- Binding of serum SARS-yellow to looped/cyclic peptides of protein N of SARS-CoV Urbani [1]: 0.8
- Binding of Control Serum Blood-Bank to Looped peptides [2]: 0.7
- Binding of Control serum Blood-bank to linear peptides [2]: 0.7
- Binding of Control serum LUMC to linear peptides [2]: 0.7
- Binding of Control serum LUMC to looped peptides [2]: 0.8
- Binding of a rabbit serum to linear peptides of protein N of SARS-CoV Urbani (Rabbit serum linear peptides) [3]: 0.2
- Binding of a rabbit serum to looped/cyclic peptides of protein N of SARS-CoV Urbani (Rabbit serum looped peptides) [3]: 0.4
- Binding of antibody 03-018 to linear peptides of the N protein of SARS-CoV Urbani [4]: 0.1
- Binding of antibody 03-018 to looped/cyclic peptides of the N protein of SARS-CoV Urbani [4]: 0.2

Sequence: RQKKQPTVTLLPAAD
- Binding of serum 1a to linear peptides of protein N of SARS-CoV Urbani [1]: 0.3
- Binding of serum 1b to linear peptides of protein N of SARS-CoV Urbani [1]: 0.2
- Binding of serum 2 to linear peptides of protein N of SARS-CoV Urbani [1]: 0.2
- Binding of serum 6 to linear peptides of protein N of SARS-CoV Urbani [1]: 0.2
- Binding of serum 37 to linear peptides of protein N of SARS-CoV Urbani [1]: 0.7
- Binding of serum 62 to linear peptides of protein N of SARS-CoV Urbani [1]: 0.8
- Binding of serum London to linear peptides of protein N of SARS-CoV Urbani [1]: 0.6
- Binding of serum SARS-green to linear peptides of protein N of SARS-CoV Urbani [1]: 0.6
- Binding of serum SARS-yellow to linear peptides of protein N of SARS-CoV Urbani [1]: 0.6
- Recognition of the peptide by sera of SARS-CoV infected individuals, and form (linear, looped/cyclic) in which it is recognized [1]: recognized in looped/cyclic form
- Control Serum Blood-Bank Looped peptides [2]: 0.6
- Control serum Blood-bank linear peptides [2]: 0.7
- Control serum LUMC linear peptides [2]: 0.8
- Control serum LUMC looped peptides [2]: 0.5
- Binding of a rabbit serum to linear peptides of protein N of SARS-CoV Urbani (Rabbit serum linear peptides) [3]: 0.1
- Binding of a rabbit serum to looped/cyclic peptides of protein N of SARS-CoV Urbani (Rabbit serum looped peptides) [3]: 0.4
- Binding of antibody 03-018 to linear peptides of the N protein of SARS-CoV Urbani [4]: 0.1
- Binding of antibody 03-018 to looped/cyclic peptides of the N protein of SARS-CoV Urbani [4]: 0.2

— US20070128217A1 (priority 2003, published 2007)
